Reference: US10870634B2, “Histone demethylase inhibitors” (CELGENE QUANTICEL RESEARCH, INC., priority 2016, dated 2020)

Biological target: T1, JMJD2C (Homo sapiens, UniProt Q9H3R0)
T1 construct: purchased BPS Bioscience 50105
T1 sequence (Q9H3R0 2-372): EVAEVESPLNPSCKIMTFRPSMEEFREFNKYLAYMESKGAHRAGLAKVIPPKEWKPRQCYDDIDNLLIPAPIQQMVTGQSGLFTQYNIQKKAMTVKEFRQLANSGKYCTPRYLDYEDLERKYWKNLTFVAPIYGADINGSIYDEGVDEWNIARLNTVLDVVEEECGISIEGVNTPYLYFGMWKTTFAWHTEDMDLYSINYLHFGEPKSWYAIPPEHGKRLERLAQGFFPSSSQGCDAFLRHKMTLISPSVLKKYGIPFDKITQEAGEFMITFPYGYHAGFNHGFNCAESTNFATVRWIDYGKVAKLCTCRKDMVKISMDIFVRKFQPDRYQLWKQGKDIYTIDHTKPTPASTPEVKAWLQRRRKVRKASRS
Experiment: JMJD2C in vitro enzyme inhibition assay (TR-FRET)
Format: biochemical
Conditions: 0.3 nM JMJD2C, 300 nM H3K9me3-biotin peptide, 2 μM alpha-ketoglutaric acid
Description: This assay determines the ability of a test compound to inhibit Jarid1B, JMJD2C and JMJD3 demethylase activity. Baculovirus-expressed Jarid1B (GenBank Accession # NM-006618, AA 2-751) was purchased from BPS Bioscience (Cat #50121) or custom made by MolecularThroughput. Baculovirus-expressed JMJD2C (GenBank Accession # BC143571, AA 2-372) was purchased from BPS Bioscience (Cat #50105). Baculovirus-expressed JMJD3 (GenBank Accession # NM_001080424, AA1043-end) was purchased from BPS Bioscience (Cat #50115).
The ability of test compounds to inhibit the activity of JMJD2C was determined in 384-well plate format under the following reaction conditions: 0.3 nM JMJD2C, 300 nM H3K9me3-biotin labeled peptide (Anaspec cat #464360), 2 μM alpha-ketoglutaric acid in assay buffer of 50 mM HEPES, pH 7.3, 0.005% Brij35, 0.5 mM TCEP, 0.2 mg/ml BSA, 50 μM sodium L-ascorbate, and 2 μM ammonium ironll sulfate. Reaction product was determined quantitatively by TR-FRET after the addition of detection reagent Phycolink Streptavidin-allophycocyanin (Prozyme) and Europium-anti-di-methylated histone H3 lysine 9 (H3K9me2) antibody (PerkinElmer) in the presence of 5 mM EDTA in LANCE detection buffer (PerkinElmer) at a final concentration of 50 nM and 1 nM, respectively.
The assay reaction was initiated by the following: 2 μl of the mixture of 900 nM H3K9me3-biotin labeled peptide and 6 μM alpha-ketoglutaric acid with 2 μl of 11-point serial diluted inhibitor in 3% DMSO were added to each well of the plate, followed by the addition of 2 μl of 0.9 nM JMJD2C to initiate the reaction. […] Plates were read by EnVisionMultilabel Reader in TR-FRET mode (excitation at 320 nm, emission at 615 nm and 665 nm) after 1 hr incubation at RT. A ratio was calculated (665/615) for each well and fitted to determine inhibition constant (IC50).
The ability to inhibit demethylase activity was quantified and the respective IC50 value was determined for substituted triazolylpyridine derivative compounds. […]

IC50, > 10 µM:
Fc1cnccc1-c1nn[nH]c1C(F)(F)F [Example 1, 3-fluoro-4-[5-(trifluoromethyl)-1H-1,2,3-triazol-4-yl]pyridine]
Fc1ccc(Cl)cc1Nc1cnccc1-c1nn[nH]c1C(F)(F)F [Example 2, N-(5-chloro-2-fluorophenyl)-4-[5-(trifluoromethyl)-1H-1,2,3-triazol-4-yl]pyridin-3-amine]
FC(F)(F)c1[nH]nnc1-c1ccncc1NCC1CCCc2ccccc21 (stereo not drawn) [Example 3, N-[(1,2,3,4-tetrahydronaphthalen-1-yl)methyl]-4-[5-(trifluoromethyl)-1H-1,2,3-triazol-4-yl]pyridine-3-amine]
